Measured values as given in BindingDB's records for doi:10.1016/j.bioorg.2015.02.005 (North-West University, 2015).
Values joined by “and” are separate entries in the source; they are usually repeats but may differ in a detail not shown here. Identical values can stand only once.

How the values were obtained:
[1] = target: T1, Adenosine receptor A1 (Rattus norvegicus, UniProt P25099); assay: Radioligand Binding Assays
T1 sequence (P25099 whole entry): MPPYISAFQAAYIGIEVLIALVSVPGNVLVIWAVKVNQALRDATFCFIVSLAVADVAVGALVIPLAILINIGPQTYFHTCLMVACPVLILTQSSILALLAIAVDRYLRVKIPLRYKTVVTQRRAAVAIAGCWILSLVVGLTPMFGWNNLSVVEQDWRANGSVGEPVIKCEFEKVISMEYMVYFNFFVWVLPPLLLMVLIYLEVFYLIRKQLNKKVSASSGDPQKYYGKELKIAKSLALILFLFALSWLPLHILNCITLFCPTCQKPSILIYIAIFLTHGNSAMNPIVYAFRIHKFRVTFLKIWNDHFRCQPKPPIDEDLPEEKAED
Method: (§1) For the A2a receptor binding study, the incubation contained 10 mg of the original tissue weight of the striatal membranes, 4 nM [3H]NECA, 50 nM CPA, 10 mM MgCl2, 0.2 units/mL adenosine deaminase, the test compound and 1% DMSO. For the A1 receptor binding study, the incubations contained 5 mg of the original tissue weight of the whole brain membranes, 0.1 nM [3H]DPCPX, 0.2 units/mL adenosine deaminase, the test compound and 1% DMSO. The incubations were vortexed and incubated for 60 min at 25 °C in a shaking waterbath. Half an hour after incubation was started, the incubations were vortexed again. The incubations were terminated via filtration. The tubes were washed twice with 4 mL ice-cold Tris buffer and the filters were washed once more with 4mL ice-cold Tris buffer. The damp filters were place in scintillation vials and 4 mL of scintillation fluid was added. The vials were shaken and incubated for two hours before being counted.

[2] = target: Adenosine receptor A2a (Rattus norvegicus, UniProt P30543); assay: Radioligand Binding Assays
Method: as §1

[3] = target: T2, Amine oxidase [flavin-containing] B (Homo sapiens, UniProt P27338); assay: MAO Inhibition Assays; settings: pH 7.4
T2 sequence (P27338 whole entry): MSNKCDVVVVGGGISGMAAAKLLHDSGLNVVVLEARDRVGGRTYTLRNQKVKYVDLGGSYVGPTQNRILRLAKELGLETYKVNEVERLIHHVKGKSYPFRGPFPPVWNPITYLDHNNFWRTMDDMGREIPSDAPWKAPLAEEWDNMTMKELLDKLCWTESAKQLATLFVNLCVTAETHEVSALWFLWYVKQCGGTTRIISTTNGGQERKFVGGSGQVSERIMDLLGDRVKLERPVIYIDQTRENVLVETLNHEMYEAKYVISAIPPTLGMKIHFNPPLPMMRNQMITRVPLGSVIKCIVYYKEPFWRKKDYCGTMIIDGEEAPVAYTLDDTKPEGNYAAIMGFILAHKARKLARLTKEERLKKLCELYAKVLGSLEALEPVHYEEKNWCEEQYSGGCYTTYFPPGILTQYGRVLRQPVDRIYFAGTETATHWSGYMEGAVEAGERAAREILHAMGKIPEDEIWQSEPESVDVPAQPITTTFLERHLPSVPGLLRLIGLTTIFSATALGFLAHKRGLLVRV
Method: The enzymatic reactions were carried out at pH 7.4 (K2HPO4/KH2PO4 100 mM, made isotonic with KCl) to a final volume of 500 µL. The reactions contained the different inhibitor concentrations spanning at least 3 orders of magnitude and the MAO-A/B mixed substrate kynuramine (45 µM for MAO-A and 30 µM for MAO-B). DMSO, as co-solvent (4%) was added to each reaction. The enzyme reactions were initiated with the addition of MAO-A or MAO-B (0.0075 mg protein/mL) and incubated for 20 min at 37 °C in a waterbath. After termination with the additionof 400 µL NaOH (2 N) and 1000 µL water, the concentrations of the MAO generated 4-hydroxyquinoline were measured by fluorescence spectrophotometry (excitation = […]; emission = […]).

Chain of Adenosine receptor A2a (P30543 whole entry): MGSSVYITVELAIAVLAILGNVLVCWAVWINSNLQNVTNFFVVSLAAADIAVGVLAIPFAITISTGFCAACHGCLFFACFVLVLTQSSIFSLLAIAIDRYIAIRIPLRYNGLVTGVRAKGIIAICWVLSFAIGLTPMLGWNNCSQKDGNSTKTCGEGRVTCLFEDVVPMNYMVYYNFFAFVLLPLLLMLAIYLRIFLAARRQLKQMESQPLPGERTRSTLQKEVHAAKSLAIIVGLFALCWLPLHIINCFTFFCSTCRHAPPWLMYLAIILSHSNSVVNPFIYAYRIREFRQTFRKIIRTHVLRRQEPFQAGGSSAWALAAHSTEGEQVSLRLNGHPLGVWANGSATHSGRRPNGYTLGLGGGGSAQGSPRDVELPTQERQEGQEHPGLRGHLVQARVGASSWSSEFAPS

SMILES	Ki [1]	Ki [2]	IC50 [3]
O=C1NC(=O)c2cc(OCc3ccccc3)ccc21	4670 nM	–	–
O=C1NC(=O)c2cc(SCCc3ccccc3)ccc21	1880 nM and 649 nM	17000 nM	3900 nM
COc1ccc(CSc2ccc3c(c2)C(=O)NC3=O)cc1	369 nM and 1730 nM	–	–
O=C1NC(=O)c2cc(SCc3ccc(F)cc3)ccc21	36700 nM and 6300 nM	12700 nM	–
O=C1NC(=O)c2cc(SCc3ccc(Br)cc3)ccc21	676 nM	–	–
O=C1NC(=O)c2cc(SCc3ccc(Cl)cc3)ccc21	–	–	460 nM
O=C1NC(=O)c2cc(SCc3ccccc3)ccc21	595 nM and 548 nM	980 nM	–
O=C1Nc2ccc(OCc3ccccc3)cc2C1=O [5-Benzyloxyisatin]	9790 nM	–	–
